Measured values reported in BindingDB's records for doi:10.7270/Q2CR5RSX (Vanderbilt Screening Center For Gpcrs, Ion Channels and …, 2009).

Molecular target: T1, Muscarinic acetylcholine receptor M5 (Homo sapiens, UniProt P08912)
T1 sequence (P08912 whole entry): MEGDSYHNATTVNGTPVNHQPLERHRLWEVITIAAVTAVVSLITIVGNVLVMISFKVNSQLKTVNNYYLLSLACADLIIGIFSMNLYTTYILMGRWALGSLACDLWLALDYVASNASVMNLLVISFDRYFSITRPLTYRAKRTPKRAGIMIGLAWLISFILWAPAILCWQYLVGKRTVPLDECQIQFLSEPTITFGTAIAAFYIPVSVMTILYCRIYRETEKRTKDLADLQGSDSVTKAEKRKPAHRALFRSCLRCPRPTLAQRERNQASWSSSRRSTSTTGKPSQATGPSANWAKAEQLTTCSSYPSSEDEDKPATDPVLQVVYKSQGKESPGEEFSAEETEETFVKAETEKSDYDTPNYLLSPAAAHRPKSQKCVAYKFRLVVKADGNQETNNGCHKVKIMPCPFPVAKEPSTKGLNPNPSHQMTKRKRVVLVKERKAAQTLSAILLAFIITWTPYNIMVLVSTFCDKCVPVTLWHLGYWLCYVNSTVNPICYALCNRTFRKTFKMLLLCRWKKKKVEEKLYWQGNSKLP
Experiment: compound effect on ACh competition at M5, biochemical, [3H]N-methylscopolamine, acetylcholine (AID 2194)

COc1ccc(CN2C(=O)C(=O)c3cc(OC(F)(F)F)ccc32)cc1 [VU0238429]
EC50: 210 nM
